From ChEMBL document CHEMBL5236617, “Rapid Evolution of a Fragment-like Molecule to Pan-Metallo-Beta-Lactamase Inhibitors: Initial Leads toward Clinical Candidates” (J Med Chem, 2022) come the findings set out here.

A short description of test [1]: Inhibition of GST-tagged bacterial beta-lactamase […] expressed in Escherichia coli BL21(DE3) using CCF2-FA as substrate by fluorescence assay. Further details: species or system Bacteria.
Test [2] is described as follows: Inhibition of GST-tagged bacterial beta-lactamase VIM-1 expressed in Escherichia coli BL21(DE3) using CCF2-FA as substrate by fluorescence assay. More on the design: species or system Bacteria.
Test [3] is described as follows: Inhibition of GST-tagged bacterial beta-lactamase IMP-1 expressed in Escherichia coli BL21(DE3) using CCF2-FA as substrate by fluorescence assay. Further details: species or system Bacteria.
Test [4] can be described thus: Selectivity ratio of MITC50 for IMP-1 expressing Serratia marcescens to IC50 for GST-tagged bacterial beta-lactamase IMP-1.
Test [5] can be described thus: Selectivity ratio of MITC50 for VIM-1 expressing Klebsiella pneumoniae to IC50 for GST-tagged bacterial beta-lactamase VIM-1.
The nature of test [6]: Selectivity ratio of MITC50 for NDM-1 expressing Escherichia coli to IC50 for GST-tagged bacterial beta-lactamase […].
The test system of the next test is Escherichia coli. Nature of the test: Potentiation of imipenem-induced antibacterial activity against NDM-1 expressing Escherichia coli assessed as imipenem MIC incubated for 22 to 24 hrs (reference value: 32 ug/ml). Type of test: functional. As to conditions: time 22-24 hrs.
The subject of another test is Serratia marcescens. Nature of the test: Potentiation of imipenem-induced antibacterial activity against IMP-1 expressing Serratia marcescens assessed as imipenem MIC incubated for 22 to 24 hrs (reference value: 16 ug/ml). Type of test: functional. As to conditions: time 22-24 hrs.
For test [7], the system named is Klebsiella pneumoniae. Nature of the test: Potentiation of imipenem-induced antibacterial activity against VIM-1 expressing Klebsiella pneumoniae assessed as imipenem MIC incubated for 22 to 24 hrs (reference value: 16 ug/ml). Type of test: functional. As to conditions: time 22-24 hrs.
Test [8] has as its system Klebsiella pneumoniae. The experiment in a line: Antibacterial activity against Klebsiella pneumoniae MB9249 expressing IMP-26 infected in cyclophosphamide treated DBA/2 mouse assessed as reduction in bacterial burden in spleen at 5 mg/kg, sc administered three times for 1 day and measured after 24 hrs post injection. Type of test: functional, organism-based.
Test [9] deals with Klebsiella pneumoniae. The experiment in a line: Antibacterial activity against Klebsiella pneumoniae MB9249 expressing IMP-26 infected in cyclophosphamide treated DBA/2 mouse assessed as reduction in bacterial burden in kidney at 5 mg/kg, sc administered three times for 1 day and measured after 24 hrs post injection. Type of test: functional, organism-based.
The test system of test [10] is Klebsiella pneumoniae. Nature of the test: Antibacterial activity against Klebsiella pneumoniae MB9249 expressing IMP-26 infected in cyclophosphamide treated DBA/2 mouse assessed as reduction in bacterial burden in kidney at 10 to 50 mg/kg, sc administered three times for 1 day and measured after 24 hrs post injection. Type of test: functional, organism-based. As to conditions: dose 10-50 mg/kg.

Test [11] concerns Klebsiella pneumoniae. Nature of the test: Antibacterial activity against Klebsiella pneumoniae MB9249 expressing IMP-26 infected in cyclophosphamide treated DBA/2 mouse assessed as reduction in bacterial burden in kidney at 10 to 50 mg/kg, sc administered three times for 1 day and measured after 24 hrs post injection in presence of imipenem. Type of test: functional, organism-based. As to conditions: dose 10-50 mg/kg.

Test [12] relates to Klebsiella pneumoniae. The experiment in a line: Antibacterial activity against Klebsiella pneumoniae MB9249 expressing IMP-26 infected in cyclophosphamide treated DBA/2 mouse assessed as reduction in bacterial burden in spleen at 10 to 50 mg/kg, sc administered three times for 1 day and measured after 24 hrs post injection. Type of test: functional, organism-based. As to conditions: dose 10-50 mg/kg.

Test [13] can be described thus: Inhibition of Cav1.5 (unknown origin). Further details: species or system Homo sapiens.
In test [14] the test system is Klebsiella pneumoniae. Nature of the test: Antibacterial activity against Klebsiella pneumoniae MB9249 expressing IMP-26 infected in cyclophosphamide treated DBA/2 mouse assessed as reduction in bacterial burden in spleen at 10 to 50 mg/kg, sc administered three times for 1 day and measured after 24 hrs post injection in presence of imipenem. Type of test: functional, organism-based. As to conditions: dose 10-50 mg/kg.

The source made the active and inactive calls. The calls are words filed in the database; no cut-off is given here.

On to `CCCc1c(OCc2cccc(-c3ccccc3-c3nnn[nH]3)c2)ccc(C(C)=O)c1O`, for which the IC50 amounted to 35 nM in test [1], 23 nM in [2] and 1 nM in test [3].

Consider `CNS(=O)(=O)c1cccc(-c2ccc(C)cc2)c1-c1nnn[nH]1`, for which the half-maximal inhibitory concentration (IC50) in test [1] is 15800 nM; in [2], 18000 nM; in test [3], over 20000 nM.

Take `NS(=O)(=O)c1cccc(-c2cccnc2)c1-c1nn[nH]n1`: the IC50 came out at 24 nM in test [1], 269 nM in [2] and 1780 nM in [3]. Moreover, the figures for the Selectivity ratio in [4], in [5] and in test [6] were 28, 185 and 16, respectively. The values for the MITC95 in the test with Escherichia coli, in the test with Serratia marcescens and in the test on Klebsiella pneumoniae [7] were 0.39 µM, 50 µM and 50 µM, respectively.

For the compound `NS(=O)(=O)c1cccc(-c2ccncc2)c1-c1nn[nH]n1`, the half-maximal inhibitory concentration (IC50) in [1] is 36 nM; in test [2] it was 285 nM; in test [3] it was 485 nM. The values for the Selectivity ratio in test [4], in test [5] and in [6] were 19, 87 and 12, respectively. The MITC95 was 0.45 µM in the test with Escherichia coli, 9.37 µM in the test with Serratia marcescens and 25 µM in the test with Klebsiella pneumoniae [7].

Take `NCCNC(=O)C[N+]12CC[N+](Cc3ccc(-c4ccc(C[C@H](C(=O)O)[C@H](Cc5ccccc5)C(=O)O)cc4)cc3)(CC1)CC2`: the figures for the IC50 in test [1] and in test [2] were over 200 nM and 2.8 nM, respectively.

`C[C@@H](O)[C@H]1C(=O)N2C(C(=O)O)=C(SCCNC=N)C[C@H]12`: the outcome with Klebsiella pneumoniae [8] and with Klebsiella pneumoniae [9] was Active.

As for `c1ccc(-c2ccccc2-c2nn[nH]n2)cc1`, the IC50 in test [1] came to 44 nM; in test [2], 22 nM; in test [3], 2 nM.

Regarding `NS(=O)(=O)c1nccc(-c2ccccc2)c1-c1nn[nH]n1`, the figures for the IC50 in test [1], in test [2] and in test [3] were 35 nM, 201 nM and 375 nM, respectively. Moreover, the MITC95 in the test with Escherichia coli is under 0.195 µM.

On to `NS(=O)(=O)c1cccc(-c2ccccn2)c1-c1nn[nH]n1`, for which the IC50 in test [1] came to 3 nM; in test [2], 90 nM; in [3], 330 nM. Besides, the MITC95 in the test with Escherichia coli came out at 0.78 µM; in the test on Klebsiella pneumoniae [7], 25 µM.

For the compound `CC(CS)C(=O)N1CCc2ccccc2C1C(=O)O` (centres undefined), the results for the IC50 in test [1], in [2] and in [3] were 3.5 nM, 7.4 nM and 2.7 nM, respectively.

Regarding `NS(=O)(=O)c1nccc(-c2ccc(CO)cc2)c1-c1nn[nH]n1`, the IC50 is 35 nM in test [1], 269 nM in test [2], over 30000 nM in test [13] and 369 nM in test [3]. Further, the result in the test with Klebsiella pneumoniae [10] and in the test with Klebsiella pneumoniae [12] was inactive. Besides, the result with Klebsiella pneumoniae [11] and in the test with Klebsiella pneumoniae [14] was Active. For the same compound, the MITC95 was determined as 0.558 µM with Escherichia coli, 5.19 µM in the test with Serratia marcescens and 11.76 µM in the test on Klebsiella pneumoniae [7].
